Data from patent US10100027B2, “Benzofuran analogue as NS4B inhibitor” (priority 2014, dated 2018).
pEC50: −log10 of the molar value.

How the values were obtained:
Format in all cases: cell-based
[1] = tested on: HCV genotype 1b (HCV-1b) replicon cells; assay: HCV genotype 1b replicon cell assay (luciferase, Bright-Glo); conditions: Hepatitis C virus, 72 h, HCV-1b (Con1) replicon cells, 3 days
Protocol: (§1) The EC50 and CC50 values of anti-HCV compounds were determined by HCV genotype 1a (HCV-1a) and 1b (HCV-1b) stable transfected replication (replicon) cells. The source of genotype 1a replicon is H77 clones containing K1691R, K2040R and S2204I adaptive mutations. The source of genotype 1b replicon is Con1 clones containing E1202G, T1280I and K1846T adaptive mutations.
(§2) HCV 1a (HCV-1a) and 1b (HCV-1b) gene subtype replicon system contains the related HCV gene subtype non-structural protein gene, G418 resistance gene NEO and luciferase gene, which results in that HCV related protein and luciferase can be stably expressed in cells. By detecting the level of expression of luciferase gene, the level of HCV replication can be determined. Therefore, the system is used as a model for screening the activity of anti-HCV compound in vitro.
(§3) The compound powder was dissolved in 100% DMSO. Then the compound was diluted 5 times with 6 points, and added into the cell plate with Echo liquid handler. Ensure the final concentration of DMSO was 0.5%. Each compound was tested in duplicate.
(§4) 4) Diluting cells to 8×10^4 cells/mL with the culture medium, adding the diluted cells into the compound-containing 96-well plate (Greiner, Cat. #655090) (100 μL/well, 8000 cells/well) with automatic liquid separator (Thermo Scientific). Then place into a 37° C., 5% CO2 incubator for 3 days. Cell control well: no compound, only containing 0.5% DMSO.
(§5) 6) Then adding luciferase substrate Bright-Glo, after incubation for 5 minutes, detecting the luciferase activity by microplate reader Envison (wavelength>700 nm); analyzing the anti-HCV inhibitory activity of the compounds according to luminescence data, which was used to calculate EC50 values.
(§6) The EC50 or CC50 values were obtained by nonlinear fitting regression on inhibition percentage (inh %) data with GraphPad Prism software.

[2] = tested on: HCV genotype 1a (HCV-1a) replicon cells; assay: HCV genotype 1a replicon cell assay (luciferase, Bright-Glo); conditions: Hepatitis C virus, 72 h, HCV-1a (H77) replicon cells, 3 days
Protocol: as §1, §2, §3, §4, §5, §6

[3] = Cytotoxicity in HCV replicon cells (Cell Titer-fluor)
Protocol: as §1, §3, §4
5) Adding fluorescence substrate Cell Titer-fluor to the cell well, after incubation for 30 minutes, detecting the signal by microplate reader Envison (Ex at 405 nm and read at 515 nm). The effect of the compounds on the cytotoxicity of HCV replicon cells was analyzed according to the fluorescence data, which was used to calculate the CC50 values.
as §6

Compound	pEC50 [1]	pEC50 [2]	CC50 at 3 days [3]
Cc1cc(C(F)(F)F)c2nc(C(=O)N3CCN(C(C)(C)C)C(=O)N3)c(Cl)n2c1 [YA_0368]	6.00 to 7.00	7.00 to 10.00	> 3000 nM
O=C(c1oc2c(C(F)(F)F)cc(C3CC3)cc2c1Cl)N1CCC(C(=O)N2CC(F)(F)C2)CC1 [YD_0349]	6.00 to 7.00	6.00 to 7.00	> 3000 nM
CC1CN(C(=O)C2CCN(C(=O)c3oc4c(C(F)(F)F)cc(C5CC5)cc4c3Cl)CC2)CCN1 (stereo not drawn) [YD_0326]	5.30 to 6.00	6.00 to 7.00	> 3000 nM
CN1CCN(C(=O)C2CCN(C(=O)c3oc4c(C(F)(F)F)cc(C5CC5)cc4c3Cl)CC2)CC1 [YD_0305]	5.30 to 6.00	6.00 to 7.00	> 3000 nM
NC1CN(C(=O)C2CCN(C(=O)c3oc4c(C(F)(F)F)cc(C5CC5)cc4c3Cl)CC2)C1 [YD_0346]	6.00 to 7.00	6.00 to 7.00	> 3000 nM
O=C(c1oc2c(C(F)(F)F)cc(C3CC3)cc2c1Cl)N1CCC(C(=O)N2CC(F)C2)CC1 [YD_0342]	7.00 to 10.00	7.00 to 10.00	> 3000 nM
CC1CN(C)CCN1C(=O)C1CCN(C(=O)c2oc3c(C(F)(F)F)cc(C4CC4)cc3c2Cl)CC1 (stereo not drawn) [YD_0321]	5.30 to 6.00	6.00 to 7.00	> 3000 nM
CN(C(=O)C1CCN(C(=O)c2oc3c(C(F)(F)F)cc(C4CC4)cc3c2Cl)CC1)c1ccc(F)cn1 [YD_0329]	6.00 to 7.00	6.00 to 7.00	> 3000 nM
CC1CN(C(=O)C2CCN(C(=O)c3oc4c(C(F)(F)F)cc(C5CC5)cc4c3Cl)CC2)C1 [YD_0350]	6.00 to 7.00	6.00 to 7.00	> 3000 nM
O=C(c1oc2c(C(F)(F)F)cc(C3CC3)cc2c1Cl)N1CCC(C(=O)N2CC(CO)C2)CC1 [YD_0355]	5.30 to 6.00	6.00 to 7.00	> 3000 nM
NC(=O)C1CN(C(=O)C2CCN(C(=O)c3oc4c(C(F)(F)F)cc(C5CC5)cc4c3Cl)CC2)C1 [YD_0353]	5.30 to 6.00	6.00 to 7.00	> 3000 nM
O=C(c1oc2c(F)cc(C3CC3)cc2c1Cl)N1CCN(N2CCOC2=O)CC1 [YD_0245]	7.00 to 10.00	7.00 to 10.00	> 3000 nM
O=C(c1nc2c(C(F)(F)F)cc(C3CC3)cn2c1Cl)N1CCN(C2CCCC2)C(=O)N1 [YA_0338]	7.00 to 10.00	7.00 to 10.00	> 3000 nM
COC1CN(C(=O)C2CCN(C(=O)c3oc4c(C(F)(F)F)cc(C5CC5)cc4c3Cl)CC2)C1 [YD_0340]	6.00 to 7.00	6.00 to 7.00	> 3000 nM
O=C1CN(N2CCN(C(=O)c3oc4c(C(F)(F)F)cc(C5CC5)cc4c3Cl)CC2=O)C(=O)N1 [YD_0272]	6.00 to 7.00	6.00 to 7.00	> 3000 nM
O=C(c1oc2c(C(F)(F)F)cc(C3CC3)cc2c1Cl)N1CCN(C23CC(C2)C3)C(=O)C1 [YD_0253]	7.00 to 10.00	6.00 to 7.00	> 3000 nM
CC(C)N1CCN(C(=O)c2nn3c(C(F)(F)F)cc(C4CC4)cc3c2Cl)NC1=O [YH_0373]	7.00 to 10.00	7.00 to 10.00	> 3000 nM
Cc1nnc(C23CCC(NC(=O)c4oc5c(C(F)(F)F)cc(C(C)C)cc5c4Cl)(CC2)CC3)o1 [YD_0059]	6.00 to 7.00	7.00 to 10.00	> 3000 nM
O=C1NN(C(=O)c2nc3c(C(F)(F)F)cc(C4CC4)cn3c2Cl)CCN1CC(F)F [YA_0358]	6.00 to 7.00	6.00 to 7.00	> 3000 nM
N#Cc1c(C(=O)N2CCN(N3CCOC3=O)CC2)oc2c(C(F)(F)F)cc(C3CC3)cc12 [YD_0250]	7.00 to 10.00	7.00 to 10.00	> 3000 nM
CCOC(=O)NN1CCN(C(=O)c2oc3c(C(F)(F)F)cc(C4CC4)cc3c2Cl)CC1 [YD_0312]	6.00 to 7.00	6.00 to 7.00	> 3000 nM
CC1CN(C(=O)C2CCN(C(=O)c3oc4c(C(F)(F)F)cc(C5CC5)cc4c3Cl)CC2)CCO1 (stereo not drawn) [YD_0323]	6.00 to 7.00	6.00 to 7.00	> 3000 nM

Compound	pEC50 [1]	pEC50 [2]	CC50 at 3 days [3]
O=C1CN(N2CCN(C(=O)c3oc4c(C(F)(F)F)cc(C5CC5)cc4c3Cl)CC2)C(=O)N1 [YD_0331]	7.00 to 10.00	7.00 to 10.00	> 3000 nM
O=C(c1oc2c(C(F)(F)F)cc(C3CC3)cc2c1Cl)N1CCN(C2CCCC2)C(=O)N1 [YD_0357]	7.00 to 10.00	7.00 to 10.00	> 3000 nM
CC(C)N1CCN(C(=O)c2oc3c(C(F)(F)F)cc(C4CC4)cc3c2Cl)NC1=O [YD_0374]	7.00 to 10.00	7.00 to 10.00	> 3000 nM
O=C(c1nn2c(C(F)(F)F)cc(C3CC3)cc2c1Cl)N1CCN(C2CCCC2)C(=O)N1 [YH_0369]	5.30 to 6.00	6.00 to 7.00	> 3000 nM
CN(C)C(=O)C1(C)CCN(C(=O)c2oc3c(C(F)(F)F)cc(C4CC4)cc3c2Cl)CC1 [YD_0317]	5.30 to 6.00	6.00 to 7.00	> 3000 nM
O=C(c1oc2c(C(F)(F)F)cc(C3CC3)cc2c1Cl)N1CCN(N2CCOC2=O)CC1 [YD_0214]	7.00 to 10.00	7.00 to 10.00	> 3000 nM
CC(C)N1CCN(C(=O)c2nc3c(C(F)(F)F)cc(C4CC4)cn3c2Cl)NC1=O [YA_0360]	7.00 to 10.00	7.00 to 10.00	> 3000 nM
O=C(c1oc2c(C(F)(F)F)cc(C3CC3)cc2c1Cl)N1CCC(C(=O)N2CCC2)CC1 [YD_0313]	7.00 to 10.00	7.00 to 10.00	> 3000 nM
O=C(O)C1CCN1C(=O)C1CCN(C(=O)c2oc3c(C(F)(F)F)cc(C4CC4)cc3c2Cl)CC1 (stereo not drawn) [YD_0351]	5.30 to 6.00	6.00 to 7.00	> 3000 nM
CC1(C(N)=O)CN(C(=O)C2CCN(C(=O)c3oc4c(C(F)(F)F)cc(C5CC5)cc4c3Cl)CC2)C1 [YD_0348]	5.30 to 6.00	6.00 to 7.00	> 3000 nM
O=C(c1oc2c(C(F)(F)F)cc(C3CC3)cc2c1Cl)N1CCC(=O)N(C2CCCC2)CC1 [YD_0330]	7.00 to 10.00	6.00 to 7.00	> 3000 nM
CC(C)N(C)C(=O)C1CCN(C(=O)c2oc3c(C(F)(F)F)cc(C4CC4)cc3c2Cl)CC1 [YD_0302]	5.30 to 6.00	6.00 to 7.00	> 3000 nM
O=C(c1oc2c(C(F)(F)F)cc(C3CC3)cc2c1Cl)N1CCN([C@H]2CC[C@H](O)CC2)C(=O)N1 [YD_0365]	7.00 to 10.00	7.00 to 10.00	> 3000 nM
O=C(c1oc2c(C(F)F)cc(C3CC3)cc2c1Cl)N1CCN(N2CCOC2=O)CC1 [YD_0278]	7.00 to 10.00	7.00 to 10.00	> 3000 nM
CN(C)C1CN(C(=O)C2CCN(C(=O)c3oc4c(C(F)(F)F)cc(C5CC5)cc4c3Cl)CC2)C1 [YD_0343]	5.30 to 6.00	6.00 to 7.00	> 3000 nM
CCN(C)C(=O)C1CCN(C(=O)c2oc3c(C(F)(F)F)cc(C4CC4)cc3c2Cl)CC1 [YD_0304]	7.00 to 10.00	6.00 to 7.00	> 3000 nM
C[C@H]1COCCN1C(=O)C1CCN(C(=O)c2oc3c(C(F)(F)F)cc(C4CC4)cc3c2Cl)CC1 [YD_0311]	6.00 to 7.00	6.00 to 7.00	> 3000 nM
O=C(c1oc2c(C(F)(F)F)cc(C3CC3)cc2c1Cl)N1CCCN(N2CCOC2=O)CC1 [YD_0279]	7.00 to 10.00	7.00 to 10.00	> 3000 nM
O=C(c1oc2c(C(F)(F)F)cc(C3CC3)cc2c1Cl)N1CCC(C(=O)N2CC3CC3C2)CC1 (stereo not drawn) [YD_0324]	7.00 to 10.00	7.00 to 10.00	> 3000 nM
CC(C)c1cc(C(F)(F)F)c2oc(C(=O)N3CCN(N4CCOC4=O)CC3)c(Cl)c2c1 [YD_0215]	7.00 to 10.00	7.00 to 10.00	> 3000 nM
O=C(c1oc2c(C(F)(F)F)cc(C3CC3)cc2c1Cl)N1CCC(C(=O)N2CC(O)C2)CC1 [YD_0356]	7.00 to 10.00	7.00 to 10.00	> 3000 nM
O=C(c1oc2c(C(F)(F)F)cc(C3CC3)cc2c1Cl)N1CCN(N2CCOC2=O)C(=O)C1 [YD_0219]	7.00 to 10.00	7.00 to 10.00	> 3000 nM
